Measured values published in BindingDB's records for doi:10.1016/j.bmcl.2003.09.074 (Eli Lilly, 2003).
*1 amine or outer side, *2 acyl side, *3 side chain or, on linkers, in order; H or OH if unused. Where a SMILES comes first, the peptide text is derived from it. [ ]: non-standard residue; d: D form. The star is where a group is joined. Pro(3S,4R-(CH2)3) = O=C(O)[C@H]1NC[C@@H]2CCC[C@@H]21; Pyrazinecarbonyl = O=C(c1cnccn1)*; X1 = CCCC(N[*:1])C(=O)C(=O)[*:2]

What was measured:
[1] = Binding affinity towards Protease using PNA assay in rats
[2] = Cytotoxic activity against Protease in […] Huh-7 cells
[3] = as above; remark: listed apart in the source
[4] = Cytotoxic activity against Protease in […] Huh-7 cells at 100 uM concentration

Compound	Ki [1]	IC50 [2]	IC50 [3]	IC50 [4]
CCCC(NC(=O)[C@@H]1[C@H]2CCC(F)(F)[C@H]2CN1C(=O)[C@@H](NC(=O)[C@@H](NC(=O)c1cnccn1)C(C)C)C(C)C)C(=O)C(=O)NC1CC1 (stereo partly drawn) [(1S,5S,6R)-4,4-Difluoro-2-((S)-3-methyl-2-{(S)-3-methyl-2-[(pyrazine-2-carbonyl)-amino]-butyrylamino}-butyryl)-octahydro-cyclopenta[c]pyrrole-1-carboxylic acid (1-cyclopropylaminooxalyl-butyl)-amide]	370 nM	> 100000 nM		
CCCC(NC(=O)[C@@H]1[C@H]2CC=C[C@H]2CN1C(=O)[C@@H](NC(=O)[C@@H](NC(=O)c1cnccn1)C(C)C)C(C)C)C(=O)C(=O)N[C@@H](C)c1ccccc1 (stereo partly drawn) [(1S,5S,6R)-2-((S)-3-Methyl-2-{(S)-3-methyl-2-[(pyrazine-2-carbonyl)-amino]-butyrylamino}-butyryl)-1,2,3,3a,6,6a-hexahydro-cyclopenta[c]pyrrole-1-carboxylic acid [1-((S)-1-phenyl-ethylaminooxalyl)-butyl]-amide]	880 nM			
CCCC(NC(=O)[C@@H]1[C@H]2CC=C[C@H]2CN1C(=O)[C@@H](NC(=O)[C@@H](NC(=O)c1cnccn1)C(C)C)C(C)C)C(=O)C(=O)NC1CC1 (stereo partly drawn) [(1S,5S,6R)-2-((S)-3-Methyl-2-{(S)-3-methyl-2-[(pyrazine-2-carbonyl)-amino]-butyrylamino}-butyryl)-1,2,3,3a,6,6a-hexahydro-cyclopenta[c]pyrrole-1-carboxylic acid (1-cyclopropylaminooxalyl-butyl)-amide]	90 nM	> 100000 nM		
CCCC(NC(=O)[C@@H]1[C@H]2CC=C[C@H]2CN1C(=O)[C@@H](NC(=O)[C@@H](NC(=O)c1cnccn1)C(C)C)C(C)C)C(=O)C(=O)N[C@@H](C)CC (stereo partly drawn) [(1S,5S,6R)-2-((S)-3-Methyl-2-{(S)-3-methyl-2-[(pyrazine-2-carbonyl)-amino]-butyrylamino}-butyryl)-1,2,3,3a,6,6a-hexahydro-cyclopenta[c]pyrrole-1-carboxylic acid [1-((S)-sec-butylaminooxalyl)-butyl]-amide]	625 nM			
CCCC(NC(=O)[C@@H]1[C@H]2CC[C@@H](OCOC)C2CN1C(=O)[C@@H](NC(=O)[C@@H](NC(=O)c1cnccn1)C(C)C)C(C)C)C(=O)C(=O)N[C@@H](C)c1ccccc1 (stereo partly drawn) [(1S,5S)-4-Methoxymethoxy-2-((S)-3-methyl-2-{(S)-3-methyl-2-[(pyrazine-2-carbonyl)-amino]-butyrylamino}-butyryl)-octahydro-cyclopenta[c]pyrrole-1-carboxylic acid [(R)-1-((S)-1-phenyl-ethylaminooxalyl)-butyl]-amide]	332 nM			33000 nM
CCCC(NC(=O)[C@@H]1[C@H]2CC[C@@H](OCOC)C2CN1C(=O)[C@@H](NC(=O)[C@@H](NC(=O)c1cnccn1)C(C)C)C(C)C)C(=O)C(=O)NC1CC1 (stereo partly drawn) [(1S,5S)-4-Methoxymethoxy-2-((S)-3-methyl-2-{(S)-3-methyl-2-[(pyrazine-2-carbonyl)-amino]-butyrylamino}-butyryl)-octahydro-cyclopenta[c]pyrrole-1-carboxylic acid ((R)-1-cyclopropylaminooxalyl-butyl)-amide]	415 nM	> 100000 nM		
CCCC(NC(=O)[C@@H]1[C@H]2CCC[C@H]2CN1C(=O)[C@@H](NC(=O)[C@@H](NC(=O)c1cnccn1)C(C)C)C(C)C)C(=O)C(=O)N[C@@H](Cc1ccccc1)C(=O)O (stereo partly drawn) [2-(3-{[(1S,5S,6R)-2-((S)-3-Methyl-2-{(S)-3-methyl-2-[(pyrazine-2-carbonyl)-amino]-butyrylamino}-butyryl)-octahydro-cyclopenta[c]pyrrole-1-carbonyl]-amino}-2-oxo-hexanoylamino)-3-phenyl-propionic acid] (Pyrazinecarbonyl-VV[Pro(3S,4R-(CH2)3)][X1]F-OH)	68 nM	> 100000 nM		
CCCC(NC(=O)[C@@H]1[C@H]2CC[C@H](F)[C@H]2CN1C(=O)[C@@H](NC(=O)[C@@H](NC(=O)c1cnccn1)C(C)C)C(C)C)C(=O)C(=O)NC1CC1 (stereo partly drawn) [(1S,5S,6R)-4-Fluoro-2-((S)-3-methyl-2-{(S)-3-methyl-2-[(pyrazine-2-carbonyl)-amino]-butyrylamino}-butyryl)-octahydro-cyclopenta[c]pyrrole-1-carboxylic acid ((S)-1-cyclopropylaminooxalyl-butyl)-amide]	300 nM	> 100000 nM		

Continued, in another order:

Ki [1]	Compound	IC50 [2]	IC50 [3]	IC50 [4]
315 nM	CCCC(NC(=O)[C@@H]1[C@H]2CC[C@H](F)[C@H]2CN1C(=O)[C@@H](NC(=O)[C@@H](NC(=O)c1cnccn1)C(C)C)C(C)C)C(=O)C(=O)N[C@@H](C)c1ccccc1 (stereo partly drawn) [(1S,5S,6R)-4-Fluoro-2-((S)-3-methyl-2-{(S)-3-methyl-2-[(pyrazine-2-carbonyl)-amino]-butyrylamino}-butyryl)-octahydro-cyclopenta[c]pyrrole-1-carboxylic acid [(S)-1-((S)-1-phenyl-ethylaminooxalyl)-butyl]-amide]			
17 nM	CCCC(NC(=O)C1[C@H]2CCC(=O)[C@H]2CN1C(=O)[C@@H](NC(=O)[C@@H](NC(=O)c1cnccn1)C(C)C)C(C)C)C(=O)C(=O)Nc1ccccc1 (stereo partly drawn) [(3aR,5S)-2-((S)-3-Methyl-2-{(S)-3-methyl-2-[(pyrazine-2-carbonyl)-amino]-butyrylamino}-butyryl)-4-oxo-octahydro-cyclopenta[c]pyrrole-1-carboxylic acid (1-phenylaminooxalyl-butyl)-amide]	> 100000 nM		
82 nM	CCCC(NC(=O)[C@@H]1[C@H]2CC[C@H](F)[C@H]2CN1C(=O)[C@@H](NC(=O)[C@@H](NC(=O)c1cnccn1)C(C)C)C(C)C)C(=O)C(=O)N[C@@H](Cc1ccccc1)C(=O)O (stereo partly drawn) [(S)-2-((S)-3-{[(1S,5S,6R)-4-Fluoro-2-((S)-3-methyl-2-{(S)-3-methyl-2-[(pyrazine-2-carbonyl)-amino]-butyrylamino}-butyryl)-octahydro-cyclopenta[c]pyrrole-1-carbonyl]-amino}-2-oxo-hexanoylamino)-3-phenyl-propionic acid]		> 100000 nM	
510 nM	CCCC(NC(=O)C1[C@H]2CCC(=O)[C@H]2CN1C(=O)[C@@H](NC(=O)[C@@H](NC(=O)c1cnccn1)C(C)C)C(C)C)C(=O)C(=O)NC1CC1 (stereo partly drawn) [(5S,6R)-2-((S)-3-Methyl-2-{(S)-3-methyl-2-[(pyrazine-2-carbonyl)-amino]-butyrylamino}-butyryl)-4-oxo-octahydro-cyclopenta[c]pyrrole-1-carboxylic acid (1-cyclopropylaminooxalyl-butyl)-amide]	> 100000 nM		
176 nM	CCCC(NC(=O)[C@@H]1[C@H]2CCC(F)(F)[C@H]2CN1C(=O)[C@@H](NC(=O)[C@@H](NC(=O)c1cnccn1)C(C)C)C(C)C)C(=O)C(=O)N[C@@H](Cc1ccccc1)C(=O)O (stereo partly drawn) [(S)-2-(3-{[(1S,5S,6R)-4,4-Difluoro-2-((S)-3-methyl-2-{(S)-3-methyl-2-[(pyrazine-2-carbonyl)-amino]-butyrylamino}-butyryl)-octahydro-cyclopenta[c]pyrrole-1-carbonyl]-amino}-2-oxo-hexanoylamino)-3-phenyl-propionic acid]		> 100000 nM	
